Structures can show the parent of a compound that is named as a salt.
Columns and labels:
Assay in all cases: viability inhibition at highest dose (% inhibition); higher = more growth inhibition
[1] = system: BT-474 Tam1; conditions: 4-OH-tamoxifen in medium 1 µM; 72 h
Summary of the method: (§1)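 Breast cancer cell lines and their resistant derivatives were seeded into 384-well plates containing library drugs at five concentrations across a 10 000-fold range, with resistant lines kept in medium with 1 μM of the selecting drug. After 72 h at 37 °C, CellTiter-Glo viability was read on a PHERAstar and normalised to vehicle-only and positive controls. Logistic dose–response fits in the Breeze pipeline gave drug sensitivity score, relative IC50 (curve midpoint) and top-dose inhibition.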

[2] = system: BT-474 Tam2; conditions: 4-OH-tamoxifen in medium 1 µM; 72 h
Summary of the method: as §1

[3] = system: BT-474; conditions: 72 h
Summary of the method: as §1

[4] = system: MCF-7 Tam1; conditions: 4-OH-tamoxifen in medium 1 µM; 72 h
Summary of the method: as §1

[5] = system: MCF-7; conditions: 72 h
Summary of the method: as §1

[6] = system: T-47D Tam1; conditions: 4-OH-tamoxifen in medium 1 µM; 72 h
Summary of the method: as §1

[7] = system: T-47D Tam2; conditions: 4-OH-tamoxifen in medium 1 µM; 72 h
Summary of the method: as §1

[8] = system: T-47D; conditions: 72 h
Summary of the method: as §1

[9] = system: ZR-75-1 Tam1; conditions: 4-OH-tamoxifen in medium 1 µM; 72 h
Summary of the method: as §1

[10] = system: ZR-75-1 Tam2; conditions: 4-OH-tamoxifen in medium 1 µM; 72 h
Summary of the method: as §1

[11] = system: ZR-75-1; conditions: 72 h
Summary of the method: as §1

Row | SMILES | viability inhibition at highest dose [1] | viability inhibition at highest dose [2] | viability inhibition at highest dose ([3]; 4-OH-tamoxifen in medium 0 µM) | viability inhibition at highest dose ([3]; 4-OH-tamoxifen in medium 1 µM) | viability inhibition at highest dose [4] | viability inhibition at highest dose ([5]; 4-OH-tamoxifen in medium 0 µM) | viability inhibition at highest dose ([5]; 4-OH-tamoxifen in medium 1 µM) | viability inhibition at highest dose [6] | viability inhibition at highest dose [7] | viability inhibition at highest dose ([8]; 4-OH-tamoxifen in medium 0 µM) | viability inhibition at highest dose ([8]; 4-OH-tamoxifen in medium 1 µM) | viability inhibition at highest dose [9] | viability inhibition at highest dose [10] | viability inhibition at highest dose ([11]; 4-OH-tamoxifen in medium 0 µM) | viability inhibition at highest dose ([11]; 4-OH-tamoxifen in medium 1 µM)
1 | O=C(Nc1c[nH]nc1-c1nc2ccc(CN3CCOCC3)cc2[nH]1)NC1CC1 [AT9283] (drug 1000 nM) | 1.94 | 11.4 | -19.7 | -13.2 | -5.75 | -25.8 | -11 | -7.78 | 2.08 | -42.6 | -23.3 | -22.4 | -19.2 | -44.4 | -22.6
2 | COc1cc2nccc(Oc3ccc(NC(=O)C4(C(=O)Nc5ccc(F)cc5)CC4)cc3)c2cc1OC [Cabozantinib (XL184)] (drug 1000 nM) | 22.4 | 7.72 | -10.4 | 16 | 1.76 | 5.85 | 11.3 | 2.69 | 10.4 | -4.29 | -1.77 | 6.25 | 2.11 | -14.6 | -2.98
3 | O=C(Nc1cccnc1)N1CCC(Cc2cccc(Oc3ccc(C(F)(F)F)cn3)c2)CC1 [PF-3845] (drug 10000 nM) | 95.4 | 95.7 | 72 | 81.8 | 29.1 | 53.1 | 58.6 | 52.3 | 36.1 | 40.6 | 25.3 | 39.4 | 49.9 | 30.5 | 51.3
4 | Oc1ccc2c(c1)CC[C@H](c1ccccc1)[C@@H]2c1ccc(OCCN2CCCC2)cc1 [Lasofoxifene] (drug 1000 nM) | 34.3 | 12.4 | -9.14 | 24.2 | -2.47 | 3.8 | 25 | 2.67 | 5.06 | -21.7 | -10.6 | 3.54 | 2.17 | -9.97 | -2.22
5 | O=NN(CCCl)C(=O)NCCCl [Carmustine] (drug 10000 nM) | -0.31 | 4.36 | -6.34 | -3.07 | -12.7 | -2.85 | 5.33 | 0.948 | 2.64 | -12.6 | -5.73 | -2.37 | 0.516 | -12.9 | -8.4
6 | CC[C@@]1(O)C(=O)OCc2c1cc1n(c2=O)Cc2cc3c(CN(C)C)c(O)ccc3nc2-1 [Topotecan] (drug 1000 nM) | 4.54 | 0.0411 | -20.8 | -23.9 | -1.83 | 11 | 23.7 | 46 | 27.9 | 52.2 | 5.37 | 40.6 | 48.3 | 49.4 | 38.6
7 | CN(C)/N=N/c1[nH]cnc1C(N)=O [Dacarbazine] (drug 10000 nM) | -7.07 | 6.76 | -13 | -17.3 | -11.3 | -17 | 10.7 | -0.257 | -1.82 | -8.78 | -10 | 0.27 | 6.57 | -2.8 | -13
8 | CCNC(=O)c1noc(-c2cc(C(C)C)c(O)cc2O)c1-c1ccc(CN2CCOCC2)cc1 [NVP-AUY922] (drug 1000 nM) | 75.2 | 65.7 | 48.6 | 78 | 24.1 | 61.6 | 46.1 | 49.8 | 55 | 68.8 | 55.5 | 28.5 | 44.4 | 34.2 | 42.6
9 | O=C(CCBr)N1CCN(C(=O)CCBr)CC1 [Pipobroman] (drug 10000 nM) | -12.7 | -8.7 | -11.7 | -7.15 | -9.06 | -15.2 | 9.48 | 1.06 | 9.55 | -14.7 | -5.88 | 1.68 | -10.5 | -15 | -9.45
10 | CN1CC[C@H](c2c(O)cc(O)c3c(=O)cc(-c4ccccc4Cl)oc23)[C@H](O)C1 [Alvocidib (Flavopiridol)] (drug 10000 nM) | 96.8 | 89.5 | 9.07 | 46.1 | 30.1 | 62.9 | 65 | 57.8 | 38.7 | 29.3 | -0.409 | 49.9 | 55.9 | 50.1 | 46.6
11 | Oc1nc(-c2ccc(C(F)(F)F)cc2)nc2c1CSCC2 [XAV-939] (drug 10000 nM) | 9.15 | 10.1 | 2.3 | -20.3 | -5.47 | 7.77 | 11.1 | 22.1 | -6.24 | -0.891 | 1.95 | 3.25 | 12.7 | 5.02 | 3.5
12 | Cc1ccc([N+](=O)[O-])cc1S(=O)(=O)N(C)/N=C/c1cnc2ccc(Br)cn12 [PIK-75 (HCl)] (drug 10000 nM) | 99.3 | 98.6 | 97.9 | 97.7 | 81.4 | 64.9 | 85.5 | 91.4 | 83.6 | 60.4 | 56.9 | 88.8 | 83.9 | 80 | 71
13 | Cc1c2oc3c(C)ccc(C(=O)N[C@@H]4C(=O)N[C@H](C(C)C)C(=O)N5CCC[C@H]5C(=O)N(C)CC(=O)N(C)[C@@H](C(C)C)C(=O)O[C@@H]4C)c3nc-2c(C(=O)N[C@@H]2C(=O)N[C@H](C(C)C)C(=O)N3CCC[C@H]3C(=O)N(C)CC(=O)N(C)[C@@H](C(C)C)C(=O)O[C@@H]2C)c(N)c1=O [Dactinomycin] (drug 1000 nM) | 95.6 | 88.4 | 36.7 | 81.9 | 61.6 | 74.5 | 72.2 | 63.4 | 62.7 | 49.2 | 31.5 | 55.6 | 60.9 | 45.4 | 53.8

Source: the supplement of paper PMC4932681
